Experimental data from ChEMBL document CHEMBL4145553, “Design, synthesis, and biological evaluation of novel amide and hydrazide based thioether analogs targeting Histone deacteylase (HDAC) enzymes” (Eur J Med Chem, 2018).

Assays:
Format in all cases: functional
[1] = test system: MDA-MB-435; assay: Growth inhibition of human MDA-MB-435 cells assessed as cell growth at 10^-7 M incubated for 48 hrs by sulforhodamine B assay relative to control; conditions: MDA-MB-435, 48 h, read-out: Activity
[2] = test system: SK-MEL-5; assay: Growth inhibition of human SK-MEL-5 cells assessed as cell growth at 10^-8 M incubated for 48 hrs by sulforhodamine B assay relative to control; conditions: SK-MEL-5, 48 h, read-out: Activity
[3] = test system: IGROV-1; assay: Growth inhibition of human IGROV1 cells assessed as cell growth at 10^-4 M incubated for 48 hrs by sulforhodamine B assay relative to control; conditions: IGROV-1, 48 h, read-out: Activity
[4] = test system: BT-549; assay: Growth inhibition of human BT549 cells assessed as cell growth at 10^-4 M incubated for 48 hrs by sulforhodamine B assay relative to control; conditions: BT-549, 48 h, read-out: Activity
[5] = test system: A498; assay: Growth inhibition of human A498 cells incubated for 48 hrs by sulforhodamine B assay; conditions: A498, 48 h
[6] = test system: IGROV-1; assay: Growth inhibition of human IGROV1 cells incubated for 48 hrs by sulforhodamine B assay; conditions: IGROV-1, 48 h
[7] = test system: UO-31; assay: Growth inhibition of human UO31 cells assessed as cell growth at 10^-8 M incubated for 48 hrs by sulforhodamine B assay relative to control; conditions: UO-31, 48 h, read-out: Activity
[8] = test system: OVCAR-5; assay: Growth inhibition of human OVCAR5 cells assessed as cell growth at 10^-7 M incubated for 48 hrs by sulforhodamine B assay relative to control; conditions: OVCAR-5, 48 h, read-out: Activity
[9] = test system: CCRF-CEM; assay: Growth inhibition of human CCRF-CEM cells assessed as cell growth at 10^-4 M incubated for 48 hrs by sulforhodamine B assay relative to control; conditions: read-out: Activity
[10] = test system: MDA-MB-231; assay: Growth inhibition of human MDA-MB-231 cells assessed as cell growth at 10^-5 M incubated for 48 hrs by sulforhodamine B assay relative to control; conditions: MDA-MB-231, 48 h, read-out: Activity
[11] = test system: HL-60(TB); assay: Growth inhibition of human HL-60(TB) cells assessed as cell growth at 10^-8 M incubated for 48 hrs by sulforhodamine B assay relative to control; conditions: HL-60, 48 h, read-out: Activity
[12] = test system: HOP-62; assay: Growth inhibition of human HOP62 cells incubated for 48 hrs by sulforhodamine B assay; conditions: HOP-62, 48 h
[13] = test system: SK-MEL-5; assay: Growth inhibition of human SK-MEL-5 cells assessed as cell growth at 10^-5 M incubated for 48 hrs by sulforhodamine B assay relative to control; conditions: SK-MEL-5, 48 h, read-out: Activity
[14] = test system: OVCAR-5; assay: Growth inhibition of human OVCAR5 cells assessed as cell growth at 10^-4 M incubated for 48 hrs by sulforhodamine B assay relative to control; conditions: OVCAR-5, 48 h, read-out: Activity
[15] = test system: OVCAR-4; assay: Growth inhibition of human OVCAR4 cells assessed as cell growth at 10^-6 M incubated for 48 hrs by sulforhodamine B assay relative to control; conditions: OVCAR-4, 48 h, read-out: Activity
[16] = test system: Malme-3M; assay: Growth inhibition of human MALME-3M cells assessed as cell growth at 10^-4 M incubated for 48 hrs by sulforhodamine B assay relative to control; conditions: read-out: Activity
[17] = test system: SK-MEL-2; assay: Growth inhibition of human SK-MEL-2 cells assessed as cell growth at 10^-4 M incubated for 48 hrs by sulforhodamine B assay relative to control; conditions: SK-MEL-2, 48 h, read-out: Activity
[18] = test system: LOX IMVI; assay: Growth inhibition of human LOXIMVI cells assessed as cell growth at 10^-7 M incubated for 48 hrs by sulforhodamine B assay relative to control; conditions: read-out: Activity
[19] = test system: RXF 393; assay: Growth inhibition of human RXF393 cells assessed as cell growth at 10^-7 M incubated for 48 hrs by sulforhodamine B assay relative to control; conditions: RXF 393, 48 h, read-out: Activity
[20] = test system: MOLT-4; assay: Growth inhibition of human MOLT4 cells assessed as cell growth at 10^-8 M incubated for 48 hrs by sulforhodamine B assay relative to control; conditions: MOLT-4, 48 h, read-out: Activity
[21] = test system: IGROV-1; assay: Growth inhibition of human IGROV1 cells assessed as cell growth at 10^-8 M incubated for 48 hrs by sulforhodamine B assay relative to control; conditions: IGROV-1, 48 h, read-out: Activity
[22] = test system: HL-60; assay: Induction of apoptosis in human HL60 cells assessed as live cells by propidium iodide/Annexin V staining based flow cytometry (reference value: 96.94%)
[23] = test system: CAKI-1; assay: Growth inhibition of human Caki1 cells assessed as cell growth at 10^-8 M incubated for 48 hrs by sulforhodamine B assay relative to control; conditions: CAKI-1, 48 h, read-out: Activity
[24] = test system: COLO 205; assay: Growth inhibition of human COLO205 cells incubated for 48 hrs by sulforhodamine B assay; conditions: COLO 205, 48 h
[25] = test system: T47D; assay: Growth inhibition of human T47D cells assessed as cell growth at 10^-7 M incubated for 48 hrs by sulforhodamine B assay relative to control; conditions: read-out: Activity
[26] = test system: U-251; assay: Growth inhibition of human U251 cells assessed as cell growth at 10^-7 M incubated for 48 hrs by sulforhodamine B assay relative to control; conditions: U-251, 48 h, read-out: Activity
[27] = test system: UACC-257; assay: Growth inhibition of human UACC257 cells incubated for 48 hrs by sulforhodamine B assay; conditions: UACC-257, 48 h
[28] = test system: A498; assay: Growth inhibition of human A498 cells assessed as cell growth at 10^-6 M incubated for 48 hrs by sulforhodamine B assay relative to control; conditions: A498, 48 h, read-out: Activity
[29] = test system: ACHN; assay: Growth inhibition of human ACHN cells assessed as cell growth at 10^-8 M incubated for 48 hrs by sulforhodamine B assay relative to control; conditions: read-out: Activity
[30] = test system: SN12C; assay: Growth inhibition of human SN12C cells incubated for 48 hrs by sulforhodamine B assay
[31] = read-out: LC50 (the source's name)
[32] = read-out: pLC50 (the source's name) (converted)

How did the growth at 0.1 µM [1] turn out when `CCS/C(Nc1ccccc1)=C(\C#N)C(=O)N/N=C\c1ccc(Cl)cc1Cl` was run?
The growth at 0.1 µM was 86%.

What about the growth at 0.01 µM [2] of the same compound?
Its growth at 0.01 µM is 101%.

And the growth at 100 µM [3]?
The growth at 100 µM was 30%.

And the growth at 100 µM [4]?
Its growth at 100 µM is 7%.

And the GI50 ([5]; read-out: GI50)?
Its GI50 is 1870 nM.

What about the CC50 [5, 31] of the same compound?
The CC50 was > 100 µM.

What about the TGI ([5]; read-out: TGI) of the same compound?
Its TGI is 37.8 µM.

And the GI50 ([5]; read-out: pGI50 (converted))?
Its GI50 is 1860 nM.

What about the CC50 [5, 32] of the same compound?
Its CC50 is > 100 µM.

And the TGI ([5]; read-out: pTGI (converted))?
Its TGI is 38 µM.

What about the GI50 ([6]; read-out: GI50) of the same compound?
The GI50 was 6.46 µM.

What about the CC50 [6, 31] of the same compound?
The CC50 was > 100 µM.

What about the TGI ([6]; read-out: TGI) of the same compound?
Its TGI is > 100 µM.

What about the GI50 ([6]; read-out: pGI50 (converted)) of the same compound?
The GI50 was 6.46 µM.

And the CC50 [6, 32]?
Its CC50 is > 100 µM.

What about the TGI ([6]; read-out: pTGI) of the same compound?
Its TGI is > 100 µM.

What about the growth at 0.01 µM [7] of the same compound?
Its growth at 0.01 µM is 94%.

And the growth at 0.1 µM [8]?
The growth at 0.1 µM was 96%.

And the growth at 100 µM [9]?
Its growth at 100 µM is 11%.

And the growth at 10 µM [10]?
Its growth at 10 µM is 32%.

What about the growth at 0.01 µM [11] of the same compound?
The growth at 0.01 µM was 97%.

What about the GI50 ([12]; read-out: GI50) of the same compound?
The GI50 was 3.66 µM.

And the CC50 [12, 31]?
The CC50 was > 100 µM.

And the TGI ([12]; read-out: TGI)?
Its TGI is > 100 µM.

And the GI50 ([12]; read-out: pGI50 (converted))?
Its GI50 is 3.63 µM.

And the CC50 [12, 32]?
The CC50 was > 100 µM.

And the TGI ([12]; read-out: pTGI)?
The TGI was > 100 µM.

What about the growth at 10 µM [13] of the same compound?
Its growth at 10 µM is -6%.

What about the growth at 100 µM [14] of the same compound?
The growth at 100 µM was 38%.

What about the growth at 1 µM [15] of the same compound?
The growth at 1 µM was 86%.

What about the growth at 100 µM [16] of the same compound?
Its growth at 100 µM is 26%.

What about the growth at 100 µM [17] of the same compound?
The growth at 100 µM was -9%.

And the growth at 0.1 µM [18]?
The growth at 0.1 µM was 96%.

And the growth at 0.1 µM [19]?
Its growth at 0.1 µM is 87%.

What about the growth at 0.01 µM [20] of the same compound?
The growth at 0.01 µM was 95%.

What about the growth at 0.01 µM [21] of the same compound?
Its growth at 0.01 µM is 106%.

What about the Activity [22] of the same compound?
The Activity was 79.88%.

What about the growth at 0.01 µM [23] of the same compound?
The growth at 0.01 µM was 94%.

What about the GI50 ([24]; read-out: GI50) of the same compound?
Its GI50 is 3.09 µM.

What about the CC50 [24, 31] of the same compound?
Its CC50 is > 100 µM.

And the GI50 ([24]; read-out: pGI50 (converted))?
Its GI50 is 3.09 µM.

And the CC50 [24, 32]?
Its CC50 is > 100 µM.

And the growth at 0.1 µM [25]?
The growth at 0.1 µM was 95%.

And the growth at 0.1 µM [26]?
Its growth at 0.1 µM is 98%.

And the GI50 ([27]; read-out: GI50)?
The GI50 was 25.7 µM.

And the CC50 [27, 31]?
Its CC50 is > 100 µM.

And the TGI ([27]; read-out: TGI)?
The TGI was > 100 µM.

What about the GI50 ([27]; read-out: pGI50 (converted)) of the same compound?
The GI50 was 25.7 µM.

What about the CC50 [27, 32] of the same compound?
Its CC50 is > 100 µM.

And the TGI ([27]; read-out: pTGI)?
Its TGI is > 100 µM.

What about the growth at 1 µM [28] of the same compound?
The growth at 1 µM was 68%.

And the growth at 0.01 µM [29]?
The growth at 0.01 µM was 102%.

And the GI50 ([30]; read-out: GI50)?
Its GI50 is 6.92 µM.

What about the CC50 [30, 31] of the same compound?
Its CC50 is > 100 µM.

What about the TGI ([30]; read-out: TGI) of the same compound?
The TGI was > 100 µM.

And the GI50 ([30]; read-out: pGI50 (converted))?
Its GI50 is 6.92 µM.

What about the CC50 [30, 32] of the same compound?
Its CC50 is > 100 µM.

What about the TGI ([30]; read-out: pTGI) of the same compound?
Its TGI is > 100 µM.
